Laboratory results reported in patent US20240287022A1 (Merck Sharp & Dohme LLC, priority 2021, published 2024).

Molecular target: recombinant IL4I1 (Homo sapiens (Human), UniProt Q96RQ9)
Test: IL4I1 Enzymatic Assay (Amplex Red/HRP coupled H2O2 detection)
Type: biochemical
Conditions: 1 nM IL4I1, 1 mM each Phe/Tyr/Trp, four-hour pre-incubation, 120 minutes reaction, top compound concentration of 10000 nM
Outline: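 Recombinant IL4I1 (1 nM final) was pre-incubated 4 h at ambient temperature with compound in 50 mM Hepes pH 7.0, 0.005% Tween20. Reaction ran 120 min with 1 mM each Phe/Tyr/Trp, 0.05 mM Amplex Red and 1 U/mL HRP. Resorufin fluorescence (544/590 nm) was read, and EC50 fitted from ten-point 1:3 titrations (top 10000 nM) by four-parameter regression.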

recombinant IL4I1, sequence (Q96RQ9 22-567): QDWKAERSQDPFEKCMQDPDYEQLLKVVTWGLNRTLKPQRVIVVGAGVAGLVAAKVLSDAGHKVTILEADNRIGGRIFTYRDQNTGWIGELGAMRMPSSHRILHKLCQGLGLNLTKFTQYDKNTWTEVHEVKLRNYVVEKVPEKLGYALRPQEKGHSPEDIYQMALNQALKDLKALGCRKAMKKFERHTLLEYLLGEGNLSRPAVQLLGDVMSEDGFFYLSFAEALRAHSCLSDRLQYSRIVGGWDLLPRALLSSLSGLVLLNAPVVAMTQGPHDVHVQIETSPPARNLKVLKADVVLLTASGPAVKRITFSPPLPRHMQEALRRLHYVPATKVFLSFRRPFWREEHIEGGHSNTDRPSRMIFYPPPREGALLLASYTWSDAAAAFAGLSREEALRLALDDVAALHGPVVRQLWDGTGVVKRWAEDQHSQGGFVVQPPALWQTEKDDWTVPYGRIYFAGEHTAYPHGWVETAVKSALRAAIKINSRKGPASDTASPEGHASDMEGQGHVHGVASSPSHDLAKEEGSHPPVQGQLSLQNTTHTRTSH

## CC(=O)NCc1ccc(Cc2cc3ccccc3[nH]c2=O)cc1C [Example 168, N-(2-methyl-4-((2-oxo-1,2-dihydroquinolin-3-yl)methyl)benzyl)acetamide]
  EC50: 3.4 nM

## CN1C(=O)COc2ccc(Cc3cc4ccccc4[nH]c3=O)cc21 [Example 169, 4-Methyl-6-((2-oxo-1,2-dihydroquinolin-3-yl)methyl)-2H-benzo[b][1,4]oxazin-3(4H)-one]
  EC50: 2.3 nM

## O=C1COc2c(Cl)cc(Cc3cc4ccccc4[nH]c3=O)cc2N1 [Example 170, 8-Chloro-6-((2-oxo-1,2-dihydroquinolin-3-yl)methyl)-2H-benzo[b][1,4]oxazin-3(4H)-one]
  EC50: 1 nM

## O=C1COc2ccc(Cc3cc4ccccc4[nH]c3=O)c(F)c2N1 [Example 171, 5-Fluoro-6-((2-oxo-1,2-dihydroquinolin-3-yl)methyl)-2H-benzo[b][1,4]oxazin-3(4H)-one]
  EC50: 7 nM

## COc1ccc2[nH]c(=O)c(Cc3ccccc3)cc2c1 [Example 172, 3-benzyl-6-methoxyquinolin-2(1H)-one]
  EC50: 532 nM

## CC(C)(O)c1ccc2[nH]c(=O)c(Cc3ccccc3)cc2c1 [Example 173, 3-Benzyl-6-(2-hydroxypropan-2-yl)quinolin-2(1H)-one]
  EC50: 6840 nM

## N#Cc1ccc2[nH]c(=O)c(Cc3ccccc3)cc2c1 [Example 174, 3-Benzyl-2-oxo-1,2-dihydroquinoline-6-carbonitrile]
  EC50: 10000 nM

## Cn1c(=O)c(CC2CC2c2ccccc2)cc2ccccc21 (centres unmarked) [Example 175, 1-Methyl-3-((2-phenylcyclopropyl)methyl)quinolin-2(1H)-one]
  EC50: 7.7 nM

## O=C1COc2c(F)cc(Cc3cc4ccccc4[nH]c3=O)cc2N1 [Example 176, 8-Fluoro-6-((2-oxo-1,2-dihydroquinolin-3-yl)methyl)-2H-benzo[b][1,4]oxazin-3(4H)-one]
  EC50: 1.4 nM

## O=c1[nH]c2c(CO)cccc2cc1Cc1cccc(OC(F)(F)F)c1 [Example 177, 8-(hydroxymethyl)-3-(3-(trifluoromethoxy)benzyl)quinolin-2(1H)-one]
  EC50: 1910 nM

## NCc1cccc2cc(Cc3cccc(OC(F)(F)F)c3)c(=O)[nH]c12 [Example 178, 8-(aminomethyl)-3-(3-(trifluoromethoxy)benzyl)quinolin-2(1H)-one]
  EC50: 99 nM

## CC(C)(O)Cc1ccc(Cc2cc3ccccc3[nH]c2=O)cc1 [Example 179, 3-(4-(2-Hydroxy-2-methylpropyl)benzyl)quinolin-2(1H)-one]
  EC50: 4.9 nM

## CNCc1cccc2cc(Cc3cccc(OC(F)(F)F)c3)c(=O)[nH]c12 [Example 180, 8-((methylamino)methyl)-3-(3-(trifluoromethoxy)benzyl)quinolin-2(1H)-one]
  EC50: 105 nM

## O=C1CCC(c2ccc(Cc3cc4ccccc4[nH]c3=O)cc2Cl)N1 (centres unmarked) [Example 181, 3-(3-chloro-4-(5-oxopyrrolidin-2-yl)benzyl)quinolin-2(1H)-one]
  EC50: 2.5 nM

## O=c1[nH]c2ccccc2cc1Cc1ccc(C2COCC2O)cc1 (centres unmarked) [Example 182, 3-(4-(4-hydroxytetrahydrofuran-3-yl)benzyl)quinolin-2(1H)-one]
  EC50: 7.3 nM

## CC(C)(O)c1ccc(Cc2cc3cnccc3[nH]c2=O)cc1Cl [Example 184, 3-(3-Chloro-4-(2-hydroxypropan-2-yl)benzyl)-1,6-naphthyridin-2(1H)-one]
  EC50: 15.3 nM

## O=C1NC(=O)c2cc(Cc3cc4ccccc4[nH]c3=O)ccc21 [Example 185, 5-((2-oxo-1,2-dihydroquinolin-3-yl)methyl)isoindoline-1,3-dione]
  EC50: 9.1 nM

## CC1(O)CN(C(=O)c2ccc(Cc3cc4ccccc4[nH]c3=O)cc2)C1 [compound 2, 3-(4-(3-hydroxy-3-methylazetidine-1-carbonyl)benzyl)-quinolin-2(1H)-one]
  EC50: 34.8 nM

## CC1(N)CN(c2ccc(Cc3cc4ccccc4[nH]c3=O)cc2)C1 [compound 60, 3-(4-(3-amino-3-methylazetidin-1-yl)benzyl)quinolin-2(1H)-one]
  EC50: 19.9 nM

## O=C1N(c2ccc(Cc3cc4cnccc4[nH]c3=O)cc2)CCC1(F)F [compound 62, 3-(4-(3,3-difluoro-2-oxopyrrolidin-1-yl)benzyl)-1,6-naphthyridin-2(1H)-one]
  EC50: 6 nM

## O=c1[nH]c2ccccc2cc1Cc1ccc(CC2CNC2)cc1 [compound 64, 3-(4-(azetidin-3-ylmethyl)benzyl)quinolin-2(1H)-one]
  EC50: 10.8 nM

## CC(=O)NCc1ccc(Cc2cc3ccccc3[nH]c2=O)c(Cl)c1 [compound 67, N-(3-chloro-4-((2-oxo-1,2-dihydroquinolin-3-yl)-methyl)benzyl)acetamide]
  EC50: 15.6 nM

## CC1(O)CC(c2ccc(Cc3cc4cnccc4[nH]c3=O)cc2)C1 (centres unmarked) [compound 162, 3-(4-(3-hydroxy-3-methylcyclobutyl)benzyl)-1,6-naphthyridin-2(1H)-one]
  EC50: 6.8 nM
